The target of the assay is T1, Bcl-2-related protein A1 (Mus musculus, UniProt Q07440).
T1 sequence (Q07440 whole entry): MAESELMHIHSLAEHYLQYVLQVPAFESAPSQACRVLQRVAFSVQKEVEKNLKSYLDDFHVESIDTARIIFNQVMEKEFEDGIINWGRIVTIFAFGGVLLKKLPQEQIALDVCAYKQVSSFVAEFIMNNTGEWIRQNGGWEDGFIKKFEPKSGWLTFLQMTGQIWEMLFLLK
Put plainly: Bfl-1 activity inhibition – biochemical, dose response (AID 504689).

In general, pIC50 refers to −log10 of the IC50, conventionally taken in molar units.

Molecules are shown by their SMILES. pIC50: −log10 of the molar value. Some results are limits rather than exact numbers.

Regarding `O=C1N=c2ccccc2=C1NNC(=S)NCC1CCCO1` (configuration not stated), the pIC50 was less than 4.70.

`Cc1cccc(NC(=S)NNC2=c3ccccc3=NC2=O)c1` showed a negative-log IC50 (pIC50) of less than 4.70.

As for `COc1ccc(CN=Nc2cc(C)nc3ccc(OC)cc23)c(OC)c1`, the negative logarithm of the IC50 (pIC50) was 4.94.

Molecule `Cc1cc(C)c2c(c1)=C(NNC(=S)NCC1CCCO1)C(=O)N=2` (configuration not stated) had a pIC50 of less than 4.70.

Turning to `O=C1Nc2ccc([N+](=O)[O-])cc2C1=NNC(=S)NCC1CCCO1` (configuration not stated), the pIC50 is less than 4.70.

`NC(=S)NN=C1C(=O)N(CCCl)c2ccccc21` gave a pIC50 of less than 4.70.

As to `COC(=O)c1ccc(CN2C(=O)C(=NNC(N)=S)c3ccccc32)o1`, the negative logarithm of the IC50 (pIC50) is less than 4.70.

For `CCOC(=O)C1C(COC(=O)c2ncc(Cl)c(Cl)c2Cl)=NC(=O)NC1C` (configuration not stated), the pIC50 is less than 4.70.

For the molecule `COCCNC(=S)NN=C1C(=O)Nc2ccc([N+](=O)[O-])cc21` [1-(2-methoxyethyl)-3-[(5-nitro-2-oxoindol-3-yl)amino]thiourea], the negative logarithm of the IC50 (pIC50) was less than 4.70.

In turn, `O=C1Nc2ccccc2/C1=N/NC(=S)Nc1ccc(O)cc1` [1-(4-hydroxyphenyl)-3-[(2-oxidanylideneindol-3-yl)amino]thiourea] had a pIC50 of less than 4.70.

In the case of `CCCCNC(=S)N/N=C1\C(=O)Nc2ccccc21` [1-butyl-3-[(2-oxidanylideneindol-3-yl)amino]thiourea], the pIC50 was less than 4.70.

The molecule `CCNC(=S)NNC1=c2cc(C(C)C)ccc2=NC1=O` [1-ethyl-3-[(2-oxo-5-propan-2-yl-3-indolyl)amino]thiourea] gave a negative logarithm of the IC50 (pIC50) of less than 4.70.

For `CCN(CC)CCOC(=O)c1ccc(N=CC(C#N)c2nc(-c3ccc4c(c3)OCO4)cs2)cc1` (configuration not stated) [2-(diethylamino)ethyl 4-[[(Z)-2-[4-(1,3-benzodioxol-5-yl)-1,3-thiazol-2-yl]-2-cyano-ethenyl]amino]benzoate], the negative logarithm of the IC50 (pIC50) was 5.76.

Molecule `CCN(CC)CCOC(=O)c1ccc(N=CC(C#N)c2nc(-c3cc4ccccc4oc3=O)cs2)cc1` (configuration not stated) [2-(diethylamino)ethyl 4-[[(Z)-2-cyano-2-[4-(2-oxochromen-3-yl)-1,3-thiazol-2-yl]ethenyl]amino]benzoate] gave a pIC50 of 6.26.

On to `CCN(CC)CCOC(=O)c1ccc(N=CC(C#N)c2nc(-c3ccc(OC)cc3)cs2)cc1` (configuration not stated) [4-[[(Z)-2-cyano-2-[4-(4-methoxyphenyl)-2-thiazolyl]ethenyl]amino]benzoic acid 2-(diethylamino)ethyl ester], for which the pIC50 was 5.52.

In turn, `CC(=O)N1N=C(C2C(=O)N(C)C(=O)N(C)C2=O)CC1c1ccccc1` (configuration not stated) [5-(1-acetyl-5-phenylpyrazolidin-3-ylidene)-1,3-dimethyl-1,3-diazinane-2,4,6-trione] gave a pIC50 of less than 4.70.

With `N=C(N)C1=CC(=O)/C(=C/C=c2ccc(=C(N)N)cc2)C=C1` [(4E)-4-[2-[4-[bis(azanyl)methylidene]cyclohexa-2,5-dien-1-ylidene]ethylidene]-3-oxidanylidene-cyclohexa-1,5-diene-1-carboximidamide;2-oxidanylethanesulfonic acid], the pIC50 was less than 4.70.

Consider `C#CCOCCOCCOCCNc1nc(N2CCN(C(=O)CCCCCCCCCCNC(=O)[C@H](CCCCN)n3cc(CCCC(=O)O)nn3)CC2)nc(N2CCN(C(=O)CCCCCCCCCCNC(=O)[C@H](CCCN=C(N)N)n3cc(C[C@@H](C)CC)nn3)CC2)n1` [EK-IR], for which the negative logarithm of the IC50 (pIC50) was 4.86.

In turn, `C#CCOCCOCCOCCNc1nc(N2CCN(C(=O)CCCCCCCCCCNC(=O)[C@H]([C@@H](C)CC)n3cc(CCCCN=C(N)N)nn3)CC2)nc(N2CCN(C(=O)CCCCCCCCCCNC(=O)[C@@H]([C@H](C)O)n3cc(C)nn3)CC2)n1` [GT-RI] gave a pIC50 of less than 4.70.

Regarding `C#CCOCCOCCOCCNc1nc(N2CCN(C(=O)CCCCCCCCCCNC(=O)Cn3cc(CCCCCN)nn3)CC2)nc(N2CCN(C(=O)CCCCCCCCCCNC(=O)[C@H]([C@@H](C)CC)n3cc(CCCCN=C(N)N)nn3)CC2)n1` [KG-RI], the negative-log IC50 (pIC50) was 5.01.

On to `C#CCOCCOCCOCCNc1nc(N2CCN(C(=O)CCCCCCCCCCNC(=O)Cn3cc(CCCCCN)nn3)CC2)nc(N2CCN(C(=O)CCCCCCCCCCNC(=O)Cn3cc(C[C@@H](C)O)nn3)CC2)n1` [KG-TG], for which the negative-log IC50 (pIC50) is less than 4.70.

Consider `C#CCOCCOCCOCCNc1nc(N2CCN(C(=O)CCCCCCCCCCNC(=O)[C@H]([C@@H](C)CC)n3cc(CCCCCN)nn3)CC2)nc(N2CCN(C(=O)CCCCCCCCCCNC(=O)[C@H](CCCCN)n3cc(CCCC(=O)O)nn3)CC2)n1` [KI-EK], for which the negative-log IC50 (pIC50) is less than 4.70.

`C#CCOCCOCCOCCNc1nc(N2CCN(C(=O)CCCCCCCCCCNC(=O)[C@@H](CCC(=O)O)n3cc(CCCCCN)nn3)CC2)nc(N2CCN(C(=O)CCCCCCCCCCNC(=O)[C@H]([C@@H](C)CC)n3cc(CCCCCN)nn3)CC2)n1` [KI-KE] showed a pIC50 of less than 4.70.

In turn, `C#CCOCCOCCOCCNc1nc(N2CCN(C(=O)[C@H](Cc3cc4ccccc4[nH]3)n3cc([C@@H](N)CC(C)C)nn3)CC2)nc(N2CCN(C(=O)[C@H](Cc3cc4ccccc4[nH]3)n3cc([C@@H](N)CC(C)C)nn3)CC2)n1` [LW-LW] gave a negative-log IC50 (pIC50) of 4.71.

`CCOC(=O)c1c(C)c2c(n1C)CCCC2N=O` (configuration not stated) [MLS000026784]: the negative-log IC50 (pIC50) was less than 4.70.

In the case of `C#CCOCCOCCOCCNc1nc(N2CCN(C(=O)[C@H](CCCCN)n3cc([C@@H](N)C(C)CC)nn3)CC2)nc(N2CCN(C(=O)[C@H](Cc3cc4ccccc4[nH]3)n3cc([C@@H](N)C(C)CC)nn3)CC2)n1` (some centres not stated) [MLS000562580], the pIC50 was less than 4.70.

`C#CCOCCOCCOCCNc1nc(N2CCN(C(=O)[C@H](Cc3cc4ccccc4[nH]3)n3cc([C@@H](N)C(C)CC)nn3)CC2)nc(N2CCN(C(=O)[C@H](CCCCN)n3cc([C@@H](N)CC(C)C)nn3)CC2)n1` (some centres not stated) [MLS000562581] gave a pIC50 of less than 4.70.

Turning to `COCCNC(=S)NNC1=c2cc(C)cc(C)c2=NC1=O` [MLS000774564], the pIC50 is less than 4.70.

`COc1cc2c3c(c1)/C(=N/NC(N)=S)C(=O)N3C(C)(C)C=C2C` [MLS000807018]: the pIC50 is less than 4.70.

Regarding `CCOC(=O)C1C(COC(=O)c2cc(OC)c(OC)c(OC)c2)=NC(=O)NC1C` (configuration not stated) [MLS001161811], the pIC50 was less than 4.70.

For the molecule `Oc1c(Cc2cnc[nH]2)[nH]c(=S)n1-c1ccccc1` [MLS001163810], the pIC50 is less than 4.70.

Molecule `C#CCOCCOCCOCCNc1nc(N2CCN(C(=O)CCCCCCCCCCNC(=O)Cn3cc(C[C@@H](C)O)nn3)CC2)nc(N2CCN(C(=O)CCCCCCCCCCNC(=O)[C@H](CCCN=C(N)N)n3cc(C[C@@H](C)CC)nn3)CC2)n1` [MLS002153601] gave a pIC50 of 5.00.

Molecule `C#CCOCCOCCOCCNc1nc(N2CCN(C(=O)CCCCCCCCCCNC(=O)[C@H](CCCCN)n3cc(CCO)nn3)CC2)nc(N2CCN(C(=O)CCCCCCCCCCNC(=O)[C@H](CCCCN)n3cc(CCCC(=O)O)nn3)CC2)n1` [MLS002153608] showed a negative-log IC50 (pIC50) of less than 4.70.

In turn, `C#CCOCCOCCOCCNc1nc(N2CCN(C(=O)CCCCCCCCCCNC(=O)[C@H](CCCCN)n3cc(C)nn3)CC2)nc(N2CCN(C(=O)CCCCCCCCCCNC(=O)[C@H](CCCN=C(N)N)n3cc(C[C@@H](C)CC)nn3)CC2)n1` [MLS002153614] had a negative-log IC50 (pIC50) of 5.18.

`C#CCOCCOCCOCCNc1nc(N2CCN(C(=O)CCCCCCCCCCNC(=O)[C@H](CCCCN)n3cc(CCO)nn3)CC2)nc(N2CCN(C(=O)CCCCCCCCCCNC(=O)[C@H](CCCCN)n3cc(CCO)nn3)CC2)n1` [MLS002153615] had a pIC50 of less than 4.70.

As to `C#CCOCCOCCOCCNc1nc(N2CCN(C(=O)CCCCCCCCCCNC(=O)[C@H](CCCCN)n3cc(C)nn3)CC2)nc(N2CCN(C(=O)CCCCCCCCCCNC(=O)[C@@H]([C@H](C)CC)n3cc(CCCCCN)nn3)CC2)n1` [MLS002153655], the pIC50 was 5.10.

In turn, `C#CCOCCOCCOCCNc1nc(N2CCN(C(=O)CCCCCCCCCCNC(=O)Cn3cc(CCCCCN)nn3)CC2)nc(N2CCN(C(=O)CCCCCCCCCCNC(=O)[C@H](CO)n3cc(CCCSC)nn3)CC2)n1` [MLS002153667] had a negative logarithm of the IC50 (pIC50) of 4.93.

As for `C#CCOCCOCCOCCNc1nc(N2CCN(C(=O)CCCCCCCCCCNC(=O)[C@H](CCCCN)n3cc(CCO)nn3)CC2)nc(N2CCN(C(=O)CCCCCCCCCCNC(=O)[C@@H]([C@H](C)O)n3cc(C)nn3)CC2)n1` [MLS002153685], the pIC50 was less than 4.70.

The molecule `C#CCOCCOCCOCCNc1nc(N2CCN(C(=O)CCCCCCCCCCNC(=O)Cn3cc(CCCCCN)nn3)CC2)nc(N2CCN(C(=O)CCCCCCCCCCNC(=O)[C@H]([C@@H](C)CC)n3cc(CCCCCN)nn3)CC2)n1` [MLS002153714] had a negative logarithm of the IC50 (pIC50) of less than 4.70.

Molecule `C#CCOCCOCCOCCNc1nc(N2CCN(C(=O)CCCCCCCCCCNC(=O)[C@H]([C@@H](C)CC)n3cc(CCCCCN)nn3)CC2)nc(N2CCN(C(=O)CCCCCCCCCCNC(=O)[C@H]([C@@H](C)CC)n3cc(CCCCN=C(N)N)nn3)CC2)n1` [MLS002153718] gave a pIC50 of 5.21.

Molecule `C#CCOCCOCCOCCNc1nc(N2CCN(C(=O)CCCCCCCCCCNC(=O)[C@@H](CCSC)n3cc(CCO)nn3)CC2)nc(N2CCN(C(=O)CCCCCCCCCCNC(=O)[C@H](CCC(=O)O)n3cc(CCCCCN)nn3)CC2)n1` [MLS002153730] gave a pIC50 of less than 4.70.

`C#CCOCCOCCOCCNc1nc(N2CCN(C(=O)CCCCCCCCCCNC(=O)[C@@H](CCSC)n3cc(CCO)nn3)CC2)nc(N2CCN(C(=O)CCCCCCCCCCNC(=O)[C@H](CO)n3cc(CCCCCN)nn3)CC2)n1` [MLS002153734] had a pIC50 of less than 4.70.

As for `C#CCOCCOCCOCCNc1nc(N2CCN(C(=O)[C@H](CCCN=C(N)N)n3cc(C(N)[C@H](C)CC)nn3)CC2)nc(N2CCN(C(=O)[C@H](CCCN=C(N)N)n3cc(C(N)[C@@H](C)CC)nn3)CC2)n1` (some centres not stated) [MLS002473475], the negative-log IC50 (pIC50) was less than 4.70.

In turn, `COc1ccc2nc(C)cc(N=NCc3ccc(F)cc3)c2c1` [N-[(4-fluorophenyl)methylideneamino]-6-methoxy-2-methyl-4-quinolinamine] had a negative-log IC50 (pIC50) of 4.77.

Consider `C#CCOCCOCCOCCNc1nc(N2CCN(C(=O)CCCCCCCCCCNC(=O)[C@H]([C@@H](C)CC)n3cc(CCCCN=C(N)N)nn3)CC2)nc(N2CCN(C(=O)CCCCCCCCCCNC(=O)[C@H](CCCCN)n3cc(C)nn3)CC2)n1` [RI-GK], for which the negative logarithm of the IC50 (pIC50) is 5.07.

`CC1=CC(C)(C)N2C(=O)/C(=N\NC(N)=S)c3cccc1c32` [SMR000218901] gave a pIC50 of less than 4.70.

`CC(C)NC(=S)NNC1=c2cc(C(C)C)ccc2=NC1=O` [SMR000242097] showed a pIC50 of less than 4.70.

The values above are taken from BindingDB's records for doi:10.7270/Q25D8Q92 (Burnham Center For Chemical Genomics, 2011).
